Results taken from ChEMBL document CHEMBL3853278, “Metabolomic Profiling Reveals the N-Acyl-Taurine Geodiataurine in Extracts from the Marine Sponge Geodia macandrewii (Bowerbank)” (J Nat Prod, 2016).

Assay: Cytotoxicity in human A2058 cells assessed as reduction in cell viability after 72 hrs by cell titer 96 aqueous one assay
Type: functional, cell-based
Conditions: A2058, 72 h

CC(C)=CCC/C(C)=C/CC/C(C)=C/CCC(C)C(=O)NCCS(=O)(=O)O (stereo unspecified)
IC50: 8.5 µM
